Test results published in ChEMBL document CHEMBL1909046, “DrugMatrix in vitro pharmacology data”.

Key:
[1] = DRUGMATRIX: Atrial Natriuretic Factor (ANF) radioligand binding (ligand: [125I] ANF (rat)); type: cell membranes, Cavia porcellus, Dunkin-Hartley, Adrenal gland, Membrane; conditions: Not Active = under 50% inhibition at 10 µM
[2] = target: T1, Angiotensin-converting enzyme (Oryctolagus cuniculus, UniProt P12822); test: biochemical; type: tissue-based, Lung;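 further: enzymatic inhibition of angiotensin-converting enzyme measured with FAPGG as the substrate; in other assays of this panel Not Active means under 50% inhibition at 10 µM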
T1 sequence (P12822 whole entry): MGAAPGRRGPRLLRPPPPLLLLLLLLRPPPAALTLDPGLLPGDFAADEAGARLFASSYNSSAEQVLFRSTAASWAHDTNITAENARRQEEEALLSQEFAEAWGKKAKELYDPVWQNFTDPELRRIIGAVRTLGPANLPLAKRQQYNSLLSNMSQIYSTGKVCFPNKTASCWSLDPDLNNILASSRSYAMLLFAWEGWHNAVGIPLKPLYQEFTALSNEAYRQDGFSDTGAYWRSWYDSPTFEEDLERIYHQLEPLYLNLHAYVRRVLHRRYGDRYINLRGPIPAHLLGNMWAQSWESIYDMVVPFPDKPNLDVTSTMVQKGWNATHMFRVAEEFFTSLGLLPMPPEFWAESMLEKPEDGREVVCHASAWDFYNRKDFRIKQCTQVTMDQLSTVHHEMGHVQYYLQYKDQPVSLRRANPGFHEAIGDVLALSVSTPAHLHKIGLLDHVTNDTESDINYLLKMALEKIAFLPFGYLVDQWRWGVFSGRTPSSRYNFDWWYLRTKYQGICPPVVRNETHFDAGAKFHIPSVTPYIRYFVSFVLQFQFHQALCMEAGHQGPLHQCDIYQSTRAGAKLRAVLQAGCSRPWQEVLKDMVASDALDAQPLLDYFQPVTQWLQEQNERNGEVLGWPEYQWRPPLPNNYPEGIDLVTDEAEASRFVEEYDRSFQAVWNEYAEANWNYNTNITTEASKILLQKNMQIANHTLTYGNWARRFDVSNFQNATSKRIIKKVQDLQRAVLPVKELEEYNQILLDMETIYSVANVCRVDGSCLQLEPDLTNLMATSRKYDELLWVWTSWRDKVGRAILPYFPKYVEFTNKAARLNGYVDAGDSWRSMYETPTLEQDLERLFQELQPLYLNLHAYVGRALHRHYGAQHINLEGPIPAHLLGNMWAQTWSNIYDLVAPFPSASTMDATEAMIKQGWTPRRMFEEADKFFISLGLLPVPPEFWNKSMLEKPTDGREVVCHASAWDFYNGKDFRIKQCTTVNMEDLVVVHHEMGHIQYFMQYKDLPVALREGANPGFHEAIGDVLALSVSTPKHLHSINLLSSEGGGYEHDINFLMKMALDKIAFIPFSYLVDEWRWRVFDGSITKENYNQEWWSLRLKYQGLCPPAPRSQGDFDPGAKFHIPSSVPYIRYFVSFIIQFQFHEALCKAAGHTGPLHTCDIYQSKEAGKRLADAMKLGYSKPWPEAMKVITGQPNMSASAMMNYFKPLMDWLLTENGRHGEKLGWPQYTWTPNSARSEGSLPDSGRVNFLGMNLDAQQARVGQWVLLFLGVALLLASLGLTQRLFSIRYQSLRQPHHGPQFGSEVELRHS

[3] = target: T2, Type-2 angiotensin II receptor (Homo sapiens, UniProt P50052); type: cell-based; conditions: cho-k1; further: in other assays of this panel Not Active means under 50% inhibition at 10 µM
T2 sequence (P50052 whole entry): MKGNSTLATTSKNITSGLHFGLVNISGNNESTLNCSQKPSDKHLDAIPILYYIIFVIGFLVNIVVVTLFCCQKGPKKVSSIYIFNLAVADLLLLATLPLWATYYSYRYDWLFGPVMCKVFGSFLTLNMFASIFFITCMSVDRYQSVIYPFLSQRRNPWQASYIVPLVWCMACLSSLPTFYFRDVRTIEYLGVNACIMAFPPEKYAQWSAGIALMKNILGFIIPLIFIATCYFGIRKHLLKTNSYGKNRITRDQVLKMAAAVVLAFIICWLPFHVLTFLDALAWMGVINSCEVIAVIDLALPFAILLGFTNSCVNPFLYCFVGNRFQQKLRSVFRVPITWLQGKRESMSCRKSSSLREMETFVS

Insulin receptor = Insulin receptor (Rattus norvegicus, UniProt P15127); type: cell membranes, Wistar, Liver, Membrane; further: in other assays of this panel Not Active means under 50% inhibition at 10 µM
Sequence of Insulin receptor (P15127 27-759 limits assumed): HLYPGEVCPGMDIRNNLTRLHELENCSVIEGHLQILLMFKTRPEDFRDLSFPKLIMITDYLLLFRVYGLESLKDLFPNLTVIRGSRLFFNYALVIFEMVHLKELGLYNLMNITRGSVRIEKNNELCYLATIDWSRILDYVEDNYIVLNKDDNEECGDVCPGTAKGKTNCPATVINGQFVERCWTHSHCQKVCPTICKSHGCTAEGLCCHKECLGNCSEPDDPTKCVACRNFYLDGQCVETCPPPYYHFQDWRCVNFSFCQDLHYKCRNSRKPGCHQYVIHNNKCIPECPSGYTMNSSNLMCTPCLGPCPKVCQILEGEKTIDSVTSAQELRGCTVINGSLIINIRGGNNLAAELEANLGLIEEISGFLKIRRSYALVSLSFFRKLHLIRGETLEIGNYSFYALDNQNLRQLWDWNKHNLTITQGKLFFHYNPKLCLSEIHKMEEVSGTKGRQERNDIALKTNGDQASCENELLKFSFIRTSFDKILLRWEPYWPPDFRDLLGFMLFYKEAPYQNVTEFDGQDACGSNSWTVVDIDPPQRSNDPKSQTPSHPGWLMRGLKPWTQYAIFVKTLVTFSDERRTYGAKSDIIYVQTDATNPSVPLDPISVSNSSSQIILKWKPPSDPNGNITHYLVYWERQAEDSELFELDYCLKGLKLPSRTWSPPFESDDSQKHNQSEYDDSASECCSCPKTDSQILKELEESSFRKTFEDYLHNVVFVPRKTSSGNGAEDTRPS
Sequence of Insulin receptor (P15127 764-1383 limits assumed): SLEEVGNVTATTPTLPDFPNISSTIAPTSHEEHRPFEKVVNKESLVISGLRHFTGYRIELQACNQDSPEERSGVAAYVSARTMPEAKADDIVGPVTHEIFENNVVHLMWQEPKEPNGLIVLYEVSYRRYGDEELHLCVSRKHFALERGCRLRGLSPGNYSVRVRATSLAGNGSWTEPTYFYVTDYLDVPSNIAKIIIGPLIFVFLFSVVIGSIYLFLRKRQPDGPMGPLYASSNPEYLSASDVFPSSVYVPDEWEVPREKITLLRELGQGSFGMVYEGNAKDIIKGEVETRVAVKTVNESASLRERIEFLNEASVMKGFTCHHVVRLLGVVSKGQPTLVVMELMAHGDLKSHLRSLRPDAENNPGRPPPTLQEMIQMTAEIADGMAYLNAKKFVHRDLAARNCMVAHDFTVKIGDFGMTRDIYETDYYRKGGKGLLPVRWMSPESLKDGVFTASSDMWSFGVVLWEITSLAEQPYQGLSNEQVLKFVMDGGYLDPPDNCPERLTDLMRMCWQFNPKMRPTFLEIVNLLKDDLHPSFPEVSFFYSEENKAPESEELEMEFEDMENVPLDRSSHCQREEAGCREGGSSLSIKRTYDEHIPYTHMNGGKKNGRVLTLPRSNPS

[4] = target: Beta-2 adrenergic receptor (Homo sapiens, UniProt P07550); test: DRUGMATRIX: Adrenergic beta2 radioligand binding (ligand: [3H] CGP-12177); type: cell membranes, CHO, Membrane; conditions: cho; Not Active = under 50% inhibition at 10 µM
Sequence of Beta-2 adrenergic receptor (P07550 whole entry): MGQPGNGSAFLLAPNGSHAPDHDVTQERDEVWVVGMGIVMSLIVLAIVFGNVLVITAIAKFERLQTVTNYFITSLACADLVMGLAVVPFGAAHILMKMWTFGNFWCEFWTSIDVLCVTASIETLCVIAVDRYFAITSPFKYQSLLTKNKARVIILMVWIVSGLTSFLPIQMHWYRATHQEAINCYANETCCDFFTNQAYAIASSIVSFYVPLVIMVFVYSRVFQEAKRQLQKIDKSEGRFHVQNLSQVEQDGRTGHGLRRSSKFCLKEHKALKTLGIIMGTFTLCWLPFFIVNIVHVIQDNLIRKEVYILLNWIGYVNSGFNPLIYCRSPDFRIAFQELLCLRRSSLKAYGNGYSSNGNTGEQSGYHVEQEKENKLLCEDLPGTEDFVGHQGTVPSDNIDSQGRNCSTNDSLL

Calcitonin receptor = target: T3, Calcitonin receptor (Homo sapiens, UniProt P30988); type: cell membranes, Membrane; conditions: t47d; further: in other assays of this panel Not Active means under 50% inhibition at 10 µM
T3 sequence (P30988 whole entry): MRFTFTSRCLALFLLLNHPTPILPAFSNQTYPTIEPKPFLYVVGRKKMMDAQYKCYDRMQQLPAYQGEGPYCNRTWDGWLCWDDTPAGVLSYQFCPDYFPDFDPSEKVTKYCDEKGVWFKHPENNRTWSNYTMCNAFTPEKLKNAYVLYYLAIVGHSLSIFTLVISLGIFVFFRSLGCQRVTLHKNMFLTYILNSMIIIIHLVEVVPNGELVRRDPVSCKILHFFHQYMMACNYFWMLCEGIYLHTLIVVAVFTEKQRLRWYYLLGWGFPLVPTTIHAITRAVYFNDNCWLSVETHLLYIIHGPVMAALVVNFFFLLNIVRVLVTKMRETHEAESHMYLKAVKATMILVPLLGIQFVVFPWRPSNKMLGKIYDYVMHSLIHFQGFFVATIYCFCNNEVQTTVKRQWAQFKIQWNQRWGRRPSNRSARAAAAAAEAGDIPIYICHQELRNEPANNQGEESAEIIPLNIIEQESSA

CC(C)(C#N)c1cc(Cn2cncn2)cc(C(C)(C)C#N)c1 [ANASTROZOLE]
Not Active: IC50 [1] | Ki [1] | IC50 [2] | IC50 [3] | IC50 (Insulin receptor) | IC50 [4] | IC50 (Calcitonin receptor)

COc1ccc(Cl)cc1C(=O)NCCc1ccc(S(=O)(=O)NC(=O)NC2CCCCC2)cc1 [GLYBURIDE]
Not Active: IC50 [1] | Ki [1] | IC50 [2] | IC50 [3] | IC50 (Insulin receptor) | IC50 [4] | IC50 (Calcitonin receptor)

C[C@]12CC[C@@H](O)C[C@@H]1CC[C@@H]1[C@@H]2CC[C@]2(C)C(=O)CC[C@@H]12 [ANDROSTERONE]
Not Active: IC50 [1] | Ki [1] | IC50 [2] | IC50 [3] | IC50 (Insulin receptor) | IC50 [4] | IC50 (Calcitonin receptor)

NCC(CC(=O)O)c1ccc(Cl)cc1 (centres undefined) [BACLOFEN]
Not Active: IC50 [1] | Ki [1] | IC50 [2] | IC50 [3] | IC50 (Insulin receptor) | IC50 [4] | IC50 (Calcitonin receptor)

O=C(NCCN1CCOCC1)c1ccc(Cl)cc1 [MOCLOBEMIDE]
Not Active: IC50 [1] | Ki [1] | IC50 [2] | IC50 [3] | IC50 (Insulin receptor) | IC50 [4] | IC50 (Calcitonin receptor)

C=CCO [ALLYL ALCOHOL]
Not Active: IC50 [1] | Ki [1] | IC50 [2] | IC50 [3] | IC50 (Insulin receptor) | IC50 [4] | IC50 (Calcitonin receptor)

CCN1CCN(c2cc3c(cc2F)c(=O)c(C(=O)O)cn3C2CC2)CC1 [ENROFLOXACIN]
Not Active: IC50 [1] | Ki [1] | IC50 [2] | IC50 [3] | IC50 (Insulin receptor) | IC50 [4] | IC50 (Calcitonin receptor)

C#C[C@]1(O)CC[C@H]2[C@@H]3CCC4=CC(=O)CC[C@@H]4[C@H]3CC[C@@]21C [NORETHINDRONE]
Not Active: IC50 [1] | Ki [1] | IC50 [2] | IC50 [3] | IC50 (Insulin receptor) | IC50 [4] | IC50 (Calcitonin receptor)

CCCCCCNC(=O)n1cc(F)c(=O)[nH]c1=O [CARMOFUR]
Not Active: IC50 [1] | Ki [1] | IC50 [2] | IC50 [3] | IC50 (Insulin receptor) | IC50 [4] | IC50 (Calcitonin receptor)

Oc1ccccc1 [PHENOL]
Not Active: IC50 [1] | Ki [1] | IC50 [2] | IC50 [3] | IC50 (Insulin receptor) | IC50 [4] | IC50 (Calcitonin receptor)

COC(=O)Nc1nc2ccc(Sc3ccccc3)cc2[nH]1 [FENBENDAZOLE]
Not Active: IC50 [1] | Ki [1] | IC50 [2] | IC50 [3] | IC50 (Insulin receptor) | IC50 [4] | IC50 (Calcitonin receptor)

Nc1ccc(C(=O)O)c(O)c1 [AMINOSALICYLIC ACID]
Not Active: IC50 [1] | Ki [1] | IC50 [2] | IC50 [3] | IC50 (Insulin receptor) | IC50 [4] | IC50 (Calcitonin receptor)

OC[C@H]1O[C@@H]2O[C@H]3[C@H](O)[C@@H](O)[C@@H](O[C@H]4[C@H](O)[C@@H](O)[C@@H](O[C@H]5[C@H](O)[C@@H](O)[C@@H](O[C@H]6[C@H](O)[C@@H](O)[C@@H](O[C@H]7[C@H](O)[C@@H](O)[C@@H](O[C@H]8[C@H](O)[C@@H](O)[C@@H](O[C@H]1[C@H](O)[C@H]2O)O[C@@H]8CO)O[C@@H]7CO)O[C@@H]6CO)O[C@@H]5CO)O[C@@H]4CO)O[C@@H]3CO [BETADEX]
Not Active: IC50 [1] | Ki [1] | IC50 [2] | IC50 [3] | IC50 (Insulin receptor) | IC50 [4] | IC50 (Calcitonin receptor)

COc1cc([C@@H]2c3cc4c(cc3[C@H](O)[C@H]3COC(=O)[C@H]23)OCO4)cc(OC)c1OC [PODOFILOX]
Not Active: IC50 [1] | Ki [1] | IC50 [2] | IC50 [3] | IC50 (Insulin receptor) | IC50 [4] | IC50 (Calcitonin receptor)

C[C@H]1C[C@H]2[C@@H]3CCC4=CC(=O)C=C[C@]4(C)[C@@]3(F)[C@@H](O)C[C@]2(C)[C@@]1(O)C(=O)CO [BETAMETHASONE]
Not Active: IC50 [1] | Ki [1] | IC50 [2] | IC50 [3] | IC50 (Insulin receptor) | IC50 [4] | IC50 (Calcitonin receptor)

NC(=O)CN1CCCC1=O
Not Active: IC50 [1] | Ki [1] | IC50 [2] | IC50 [3] | IC50 (Insulin receptor) | IC50 [4] | IC50 (Calcitonin receptor)

CC(C)(c1ccc(O)cc1)c1ccc(O)cc1 [BISPHENOL A]
Not Active: IC50 [1] | Ki [1] | IC50 [2] | IC50 [3] | IC50 (Insulin receptor) | IC50 [4] | IC50 (Calcitonin receptor)
